Measured values reported in article PMC4349624, “In vitro synergistic effect of fluoroquinolone analogues in combination with artemisinin against Plasmodium falciparum; their antiplasmodial action in rodent malaria model” (Malaria Journal, 2015).

Columns and labels:
[1] = system: Plasmodium falciparum 3D7 strain; assay: antiplasmodial interaction assay, fixed-ratio combination isobologram method with artemisinin; type: cell-based; settings: n = 3
Description: Stock culture of malaria parasite P. falciparum 3D7 strain (chloroquine sensitive) was continuously maintained in vitro using a CO2 incubator under low-oxygen concentration (3%) and high carbon dioxide atmosphere (4%) along with nitrogen (93%), incubated at a temperature of 37°C. The parasites were maintained on O^+ human red blood cells suspended in a complete culture medium. Each litre of RPMI-1640 aqueous culture medium was prepared with 10.4 g of powdered RPMI-1640 (with glutamine but without sodium bicarbonate), 5.94 g of HEPES buffer, 1 g of dextrose and 40 mg of gentamicin. Complete medium was constituted just before use by adding sterile 5% sodium bicarbonate at the rate of 4 ml per 96 ml, and supplemented with 10% (v/v) pooled O^+ human serum. Infected erythrocytes were suspended in this culture media initiated at a haematocrit value of 5% and parasitemia was kept between 2 and 4% with sub-culturing done beyond 5%. Medium was changed once a day and percentage parasitemia was monitored using Giemsa stained slides.
Artemisinin (Sigma Aldrich, USA) was prepared in DMSO to get the stock solution of 1 mg/ml strength. Compounds 10, 12 and 18 were synthesized according to the procedure described by Dixit et al. and each compound was made to strength of 1 mg/ml stock solution in DMSO. The stock solutions were diluted on the day of experiment to get the desired concentrations for each compound. The highest amount of DMSO in diluted concentrations was 0.125%, and had no effect on parasite growth.
In each combination assay, two compounds (Compound A, artemisinin and Compound B, a fluoroquinolone derivative or norfloxacin) were combined in four fixed ratios (4:1, 3:2, 2:3, and 1:4).
Compound dilutions of each combination solution were made in sterile, flat-bottomed, 96-well tissue culture plates as described by Fivelman et al.. Six times two-fold serial dilution was done for each combination in triplicate. Each well contained a total volume of 200 μl of complete culture medium with or without compound and pre-synchronized infected red blood cells (1% parasitemia at 2.5% haematocrit). Control cultures (without compound) were maintained on the same plate in triplicate. Two 96-well plates (for six combinations) were used for each combination experiment. The plates were stacked in a CO2 incubator and incubated at 37°C for 48 hours.
After 48-hour incubation, thin blood smear slides were prepared, air dried, methanol fixed, and stained in Giemsa solution for 40 min. After staining, slides were removed from coupling jar, washed in running tap water and air dried. The Giemsa-stained slides were examined for counting the number of parasites in random adjacent microscopic fields, equivalent to about 4,000 erythrocytes at 1,000 × magnification. Per cent parasitemia was calculated. Reproducibility of counts was checked by two other readers to maintain the quality control.
For each combination assay, IC50 was calculated from two sets of concentration response graphs, each containing compound alone curve and four combination curves.
ƩFIC <1 represents synergism, ƩFIC > = 1 and <2 represents additive interaction, ƩFIC > = 2 and <4 represents slight antagonism while ƩFIC > = 4 represents marked antagonism.

Plasmodium berghei ANKA = assay: Peters' four-day suppressive test in BALB/c mice; type: in vivo; settings: ip; for Mean ED50 ± SE: once daily days 0 to 3, BALB/c mice, n = 5
Source text: Evaluation of the curative potential of the fluoroquinolone derivatives was done using the method described by Ryley and Peters, 1970 (rodent malaria four-day suppressive test; Peters’ four-day suppressive test). Rodent malaria parasite Plasmodium berghei ANKA was used.
[…] BALB/c inbred albino mice (25–30 g) of the male sex were obtained from the Animal Facility Centre of the Department of Zoology, University of Delhi. The animals were fed ad libitum with standard feed and had free access to water. They were maintained under standard conditions of humidity, temperature (25°C) and 12 hours light/darkness cycles. The animals were acclimatized for two weeks before the commencement of the study and were ensured to exclude all zoonotic agents.
Day 0: Heparinized blood was withdrawn from an infected donor mouse with approximately 25-30% parasitemia, and diluted in 1x PBS to 10^8 parasitized erythrocytes per mL. An aliquot of 0.2 mL (=2 × 10^7 parasitized erythrocytes) of this suspension was injected intraperitoneally (ip) into experimental groups of five mice each. One to three hours post-infection, the experimental groups were treated with varying doses of each of the test compounds (0.5, 1, 10, 25 mg/kg BW) by the ip route. Each compound was made to strength of 5 mg/ml stock solution in 10% DMSO and administered according to desired concentration and individual body weight. Artemisinin was given to the standard drug group and 0.2 mL of normal saline to the negative control group.
Day 1, 2 and 3: 24 hours, 48 hours and 72 hours post-infection, the experimental groups of mice were treated again with the same dose and by the same route as on day 0.
Day 4: 24 hours after the last treatment (i.e., 96 hours post-infection), blood was drawn from the tail region of mice and smears were prepared. […] Differences in parasitemia percentage between treated groups and untreated animals were analysed by a one-way ANOVA test using IBM SPSS Statistics 16.0 and differences considered significant if P < 0.05. […] Percentinhibitionactivity=100–Meanparasitemia/control×100
Untreated control mice typically died approximately one week after infection. […] The mean survival time was calculated in comparison to untreated (Normal saline) and standard drug (artemisinin) treated groups. Differences in survival time between treated groups and untreated animals were analysed by Log-rank (Mantel-Cox) test using GraphPad Prism 5 and differences considered significant if P <0.005. Observations concerning adverse effects due to the compounds were recorded.

[2] = cited from earlier work

Question: For C[C@@H]1CC[C@H]2[C@@H](C)C(=O)O[C@@H]3O[C@@]4(C)CC[C@@H]1[C@]32OO4 [Artemisinin], which “Drug A (Artemisinin) Mean FIC50 ± SE” value ([1]; ratio A:B 1:4, combined with compound 10) is on record?
Answer: 0.17 ± 0.03

Question: And the “Drug A (Artemisinin) Mean FIC50 ± SE” value ([1]; ratio A:B 1:4, combined with compound 12)?
Answer: 0.25 ± 0.004

Question: What about the “Drug A (Artemisinin) Mean FIC50 ± SE” value ([1]; ratio A:B 1:4, combined with compound 18) of the same compound?
Answer: 0.22 ± 0.01

Question: What about the “Drug A (Artemisinin) Mean FIC50 ± SE” value ([1]; ratio A:B 1:4, combined with norfloxacin) of the same compound?
Answer: 0.14 ± 0.01

Question: What about the “Drug A (Artemisinin) Mean FIC50 ± SE” value ([1]; ratio A:B 2:3, combined with compound 10) of the same compound?
Answer: 0.48 ± 0.02

Question: What about the “Drug A (Artemisinin) Mean FIC50 ± SE” value ([1]; ratio A:B 2:3, combined with compound 12) of the same compound?
Answer: 0.50 ± 0.02

Question: And the “Drug A (Artemisinin) Mean FIC50 ± SE” value ([1]; ratio A:B 2:3, combined with compound 18)?
Answer: 0.49 ± 0.04

Question: And the “Drug A (Artemisinin) Mean FIC50 ± SE” value ([1]; ratio A:B 2:3, combined with norfloxacin)?
Answer: 0.66 ± 0.02

Question: And the “Drug A (Artemisinin) Mean FIC50 ± SE” value ([1]; ratio A:B 3:2, combined with compound 10)?
Answer: 0.58 ± 0.03

Question: And the “Drug A (Artemisinin) Mean FIC50 ± SE” value ([1]; ratio A:B 3:2, combined with compound 12)?
Answer: 0.60 ± 0.03

Question: And the “Drug A (Artemisinin) Mean FIC50 ± SE” value ([1]; ratio A:B 3:2, combined with compound 18)?
Answer: 0.55 ± 0.03

Question: What about the “Drug A (Artemisinin) Mean FIC50 ± SE” value ([1]; ratio A:B 3:2, combined with norfloxacin) of the same compound?
Answer: 0.29 ± 0.02

Question: And the “Drug A (Artemisinin) Mean FIC50 ± SE” value ([1]; ratio A:B 4:1, combined with compound 10)?
Answer: 0.61 ± 0.01

Question: And the “Drug A (Artemisinin) Mean FIC50 ± SE” value ([1]; ratio A:B 4:1, combined with compound 12)?
Answer: 0.63 ± 0.03

Question: And the “Drug A (Artemisinin) Mean FIC50 ± SE” value ([1]; ratio A:B 4:1, combined with compound 18)?
Answer: 0.58 ± 0.02

Question: What about the “Drug A (Artemisinin) Mean FIC50 ± SE” value ([1]; ratio A:B 4:1, combined with norfloxacin) of the same compound?
Answer: 0.91 ± 0.03

Question: And the “Drug A (Artemisinin) Mean FIC50 ± SE” value ([1]; ratio A:B 5:0, assay with compound 10)?
Answer: 1.02 ± 0.04

Question: And the “Drug A (Artemisinin) Mean FIC50 ± SE” value ([1]; ratio A:B 5:0, assay with compound 12)?
Answer: 1.0 ± 0.02

Question: What about the “Drug A (Artemisinin) Mean FIC50 ± SE” value ([1]; ratio A:B 5:0, assay with compound 18) of the same compound?
Answer: 0.97 ± 0.07

Question: And the “Drug A (Artemisinin) Mean FIC50 ± SE” value ([1]; ratio A:B 5:0, assay with norfloxacin)?
Answer: 1.13 ± 0.06

Question: And the “Mean ED50 ± SE” value (Plasmodium berghei ANKA)?
Answer: 1.72 ± 0.15 mg/kg BW

Question: And the “Mean ED50 ± SE” value (Plasmodium berghei ANKA; listed as artemisinin)?
Answer: 1.72 mg/kg BW

Question: And the “survival of treated mice” value (Plasmodium berghei ANKA; varying doses 0.5-25 mg/kg BW, observed 30 days)?
Answer: survived beyond two weeks

Question: And the half life [2]?
Answer: < one
